Assay results reported in PMC10040842, “Cyclopia extracts act as selective estrogen receptor subtype downregulators in estrogen receptor positive breast cancer cell lines: Comparison to standard of care breast cancer endocrine therapies and a selective estrogen receptor agonist and antagonist” (Frontiers in Pharmacology, 2023).
Where two headings read alike, the source gives them in different places. Marks after values point to notes of the source that are not given here.

Tests used:
ERβ [1] = target: T1, ERβ (Homo sapiens, UniProt Q92731); assay: Effect of translational inhibition (CHX) on modulation of ERβ protein levels in T47D cells; type: cell-based; design: endogenous in cells; conditions: 1 nM CHX, over the concentrations tested
ERβ [2] = target: T1, ERβ; design: although both cell lines express ERα and ERβ, MCF7 has a high ERα/ERβ ratio; endogenous in cells; host or cells: MCF7; conditions: cited from earlier work
ERβ [3] = target: T1, ERβ; assay: Western blot, dose-response modulation of ERβ protein levels in T47D cells; type: cell-based; design: endogenous in cells; conditions: 24 h, relative to vehicle (DMSO) = 100%
ERβ [4] = target: T1, ERβ; assay: Effect of translational inhibition (CHX) on modulation of ERβ protein levels in MCF7 cells; type: cell-based; design: although both cell lines express ERα and ERβ, MCF7 has a high ERα/ERβ ratio; endogenous in cells; host or cells: MCF7
ERα [5] = conditions: MCF7, cited from earlier work; for ERα protein levels downregulated: 48 h, 1 nM E2, 100 nM fulvestrant, 1 μM 4-OHT, ref Garner et al. (2015); for ERα protein levels downregulated to: after 6 h, 100 nM, ref Yeh et al. (2013)
ERβ [6] = target: T1, ERβ; assay: Western blot, dose-response modulation of ERβ protein levels in MCF7 cells; type: cell-based; design: although both cell lines express ERα and ERβ, MCF7 has a high ERα/ERβ ratio; endogenous in cells; host or cells: MCF7; conditions: 24 h, relative to vehicle (DMSO) = 100%
ERα [7] = target: T2, ERα (Homo sapiens, UniProt P03372); assay: Western blot, dose-response modulation of ERα protein levels in T47D cells; type: cell-based; design: endogenous in cells; conditions: 24 h; for Efficacy, ERα (AVG % ER remaining ± SD): relative to vehicle (DMSO) = 100%
T2 sequence (P03372 1-595): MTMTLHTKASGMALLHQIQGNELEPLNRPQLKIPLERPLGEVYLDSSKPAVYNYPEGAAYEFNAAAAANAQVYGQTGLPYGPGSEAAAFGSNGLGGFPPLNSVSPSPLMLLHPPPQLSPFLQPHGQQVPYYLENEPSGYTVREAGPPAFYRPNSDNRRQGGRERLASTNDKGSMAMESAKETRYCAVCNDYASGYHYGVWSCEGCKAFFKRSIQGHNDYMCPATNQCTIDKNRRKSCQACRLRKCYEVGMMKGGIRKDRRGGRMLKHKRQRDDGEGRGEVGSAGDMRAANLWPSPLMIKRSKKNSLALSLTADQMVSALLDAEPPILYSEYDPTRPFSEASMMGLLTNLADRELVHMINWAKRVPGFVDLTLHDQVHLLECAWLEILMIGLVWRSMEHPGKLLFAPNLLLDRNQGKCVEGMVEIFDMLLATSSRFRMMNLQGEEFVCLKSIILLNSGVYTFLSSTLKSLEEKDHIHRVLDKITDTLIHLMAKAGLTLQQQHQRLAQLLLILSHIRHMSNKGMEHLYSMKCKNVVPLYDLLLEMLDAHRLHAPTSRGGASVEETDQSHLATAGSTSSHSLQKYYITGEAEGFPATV

ERα [8] = conditions: T47D, cited from earlier work; for Effect on ERα protein levels: 24 h, 1 nM E2, 1 μM 4-OHT, ref Power and Thompson (2003)
ERα [9] = target: T2, ERα; assay: Western blot, dose-response modulation of ERα protein levels in MCF7 cells; type: cell-based; design: although both cell lines express ERα and ERβ, MCF7 has a high ERα/ERβ ratio; endogenous in cells; host or cells: MCF7; conditions: 24 h; for Efficacy, ERα (AVG % ER remaining ± SD): relative to vehicle (DMSO) = 100%, maximal response of fitted dose-response curve
ERβ [10] = target: T1, ERβ; design: endogenous in cells; method as in Power and Thompson (2003); conditions: T47D; 1 nM E2, 24 h 1 μM 4-OHT; ref Power and Thompson (2003); cited from earlier work
ERα [11] = target: T2, ERα; assay: Effect of translational inhibition (CHX) on modulation of ERα protein levels in MCF7 cells; type: cell-based; design: although both cell lines express ERα and ERβ, MCF7 has a high ERα/ERβ ratio; endogenous in cells; host or cells: MCF7; conditions: 1 nM CHX, over the concentrations tested
ERα [12] = target: T2, ERα; assay: Effect of translational inhibition (CHX) on modulation of ERα protein levels in T47D cells; type: cell-based; design: endogenous in cells; conditions: 1 nM CHX, over the concentrations tested
[13] = MCF7, 1 nM E2, 1 μM fulvestrant, ref Mishra et al. (2016)
[14] = MCF7 cells transfected with an ERβ expression vector, 10 nM, ref Peekhaus et al. (2004)
[15] = MCF7, 1 nM CHX, over the concentrations tested
[16] = MCF7, 1 nM E2, 24 h 1 μM 4-OHT, ref Power and Thompson (2003)

T1 sequence (Q92731 whole entry): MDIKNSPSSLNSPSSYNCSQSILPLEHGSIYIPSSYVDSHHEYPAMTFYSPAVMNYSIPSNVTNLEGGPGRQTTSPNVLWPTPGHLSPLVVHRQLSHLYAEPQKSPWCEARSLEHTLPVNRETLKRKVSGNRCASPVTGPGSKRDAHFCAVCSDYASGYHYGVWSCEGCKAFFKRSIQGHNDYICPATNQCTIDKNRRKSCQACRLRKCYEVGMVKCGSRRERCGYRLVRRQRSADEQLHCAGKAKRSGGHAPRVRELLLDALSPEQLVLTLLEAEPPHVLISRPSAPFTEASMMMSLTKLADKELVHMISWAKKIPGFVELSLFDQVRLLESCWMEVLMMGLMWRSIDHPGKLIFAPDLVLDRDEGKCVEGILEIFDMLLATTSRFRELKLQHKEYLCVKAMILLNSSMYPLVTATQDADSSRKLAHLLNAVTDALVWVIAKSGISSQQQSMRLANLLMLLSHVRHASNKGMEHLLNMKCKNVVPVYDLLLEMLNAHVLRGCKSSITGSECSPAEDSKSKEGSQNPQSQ

| SMILES | Change in ERβ protein levels on addition of CHX (ERβ [1]) | Effect on ERβ protein levels (ERβ [2]; [13]) | Effect on ERβ protein levels (ERβ [2]; [14]) | Efficacy, ERβ (AVG % ER remaining ± SD) (ERβ [3]) | Change in ERβ protein levels on addition of CHX (ERβ [4]; [15]) | ERα protein levels downregulated (ERα [5]) [%] | ERα protein levels downregulated to (ERα [5]) [%] | Efficacy, ERβ (AVG % ER remaining ± SD) (ERβ [6]) | Efficacy, ERα (AVG % ER remaining ± SD) (ERα [7]) | Efficacy, ERα (AVG % ER remaining ± SD) (ERα [9]) | Effect on ERβ protein levels (ERβ [2]; [16]) | Effect on ERβ protein levels (ERβ [10]) | Effect on ERα protein levels (ERα [8]) | Change in ERα protein levels on addition of CHX (ERα [11]) | Change in ERα protein levels on addition of CHX (ERα [12]) | also measured |
| --- | --- | --- | --- | --- | --- | --- | --- | --- | --- | --- | --- | --- | --- | --- | --- | --- |
| C[C@]12CC[C@@H]3c4ccc(O)cc4C[C@@H](CCCCCCCCC[S+]([O-])CCCC(F)(F)C(F)(F)F)[C@H]3[C@@H]1CC[C@@H]2O (stereo partly shown) [Ful, fulvestrant] | 1.2 fold | upregulated | upregulated | 134.1 ± 4.8^b*** % | not significantly altered | 100 | 35 | 127.1 ± 9.6^b*** % | 64.1 ± 20.9^a % | 46.8 ± 6.8^a % | – | – | – | – | – | Efficacy of downregulation of ERα protein levels (ERα [5]; 1 μM, 4 h, ref Joseph et al. (2016)): 6.4%; IC50 (ERα [5]; ref Joseph et al. (2016), read-out: Potency of downregulation of ERα protein levels): 0.39 nM; ERα protein levels downgraded (ERα [8]; concentration range 0.03–1 μM, ref Liu et al. (2016)): more than 50% |
| CC/C(=C(\c1ccc(O)cc1)c1ccc(OCCN(C)C)cc1)c1ccccc1 [4-OHT, (2)-4-hydroxytamoxifen] | – | – | – | 151.8 ± 10.8^b*** % | – | – | – | 142.9 ± 8.2^b*** % | – | – | significantly upregulated | significant downregulation | upregulate | – | – | Change in ERβ protein levels on addition of CHX (ERβ [4]): not significantly altered |
| O=C1C[C@@H](c2ccc(O)cc2)Oc2cc(O)ccc21 [Liq, liquiritigenin] | – | – | – | – | – | – | – | – | 87.5 ± 2.5^b ^, ^c % | 65.9 ± 10.9^a % | – | – | – | no significant difference | no significant difference | Potency, ERα (AVG IC50 in Log μg/mL ± SD) (ERα [7]): −9.8 ± 1.0^a ^, ^c** Log μg/mL; Potency, ERα (AVG IC50 in Log μg/mL ± SD) (ERα [9]): −1.9 ± 0.8^b**** Log μg/mL |
| C[C@]12CC[C@@H]3c4ccc(O)cc4CC[C@H]3[C@@H]1CC[C@@H]2O [E2, 17β-estradiol] | – | downregulated | downregulated | 58.7 ± 9.0^a % | – | 100 | 35 | 53.3 ± 5.6^a % | – | – | significantly upregulated | significantly upregulated | no effect | – | – | Effect on ERα protein levels (ERα [5]; 24 h, 1 nM E2, 1 μM 4-OHT, ref Power and Thompson (2003)): downregulated |
| Cc1c(-c2ccc(O)cc2)nn(-c2ccc(O)cc2)c1-c1ccc(OCCN2CCCCC2)cc1 [MPP, methylpiperidinopyrazole] | no significant difference | – | – | 108.0 ± 2.1^b*** % | 1.1 fold | – | – | 122.0 ± 2.3^b*** % | 115.7 ± 3.4^b** % | 120.9 ± 3.0^b*** % | – | – | – | 1.1 fold | no significant difference | – |
